Structures are written as SMILES. Some results are limits rather than exact numbers.

IC50 data for 25 molecules are collected here from patent US8541588B2, “Sulfonamide derivatives” (Pfizer Limited, priority 2009, dated 2013).

The test addresses T1, Nav1.7 (or SCN9A) channel; HEK cells stably transfected with hSCN9A (Homo sapiens, UniProt Q15858).
T1 construct: expressed in transfected cells
Kind of test: Nav1.7 block, PatchXpress 7000 automated whole-cell voltage clamp, estimated IC50 (EIC50). The note with it: estimated IC50; hSCN9A HEK cells, PatchXpress platform; Examples 283-814. Format: cell-based.

T1 sequence (Q15858 whole entry): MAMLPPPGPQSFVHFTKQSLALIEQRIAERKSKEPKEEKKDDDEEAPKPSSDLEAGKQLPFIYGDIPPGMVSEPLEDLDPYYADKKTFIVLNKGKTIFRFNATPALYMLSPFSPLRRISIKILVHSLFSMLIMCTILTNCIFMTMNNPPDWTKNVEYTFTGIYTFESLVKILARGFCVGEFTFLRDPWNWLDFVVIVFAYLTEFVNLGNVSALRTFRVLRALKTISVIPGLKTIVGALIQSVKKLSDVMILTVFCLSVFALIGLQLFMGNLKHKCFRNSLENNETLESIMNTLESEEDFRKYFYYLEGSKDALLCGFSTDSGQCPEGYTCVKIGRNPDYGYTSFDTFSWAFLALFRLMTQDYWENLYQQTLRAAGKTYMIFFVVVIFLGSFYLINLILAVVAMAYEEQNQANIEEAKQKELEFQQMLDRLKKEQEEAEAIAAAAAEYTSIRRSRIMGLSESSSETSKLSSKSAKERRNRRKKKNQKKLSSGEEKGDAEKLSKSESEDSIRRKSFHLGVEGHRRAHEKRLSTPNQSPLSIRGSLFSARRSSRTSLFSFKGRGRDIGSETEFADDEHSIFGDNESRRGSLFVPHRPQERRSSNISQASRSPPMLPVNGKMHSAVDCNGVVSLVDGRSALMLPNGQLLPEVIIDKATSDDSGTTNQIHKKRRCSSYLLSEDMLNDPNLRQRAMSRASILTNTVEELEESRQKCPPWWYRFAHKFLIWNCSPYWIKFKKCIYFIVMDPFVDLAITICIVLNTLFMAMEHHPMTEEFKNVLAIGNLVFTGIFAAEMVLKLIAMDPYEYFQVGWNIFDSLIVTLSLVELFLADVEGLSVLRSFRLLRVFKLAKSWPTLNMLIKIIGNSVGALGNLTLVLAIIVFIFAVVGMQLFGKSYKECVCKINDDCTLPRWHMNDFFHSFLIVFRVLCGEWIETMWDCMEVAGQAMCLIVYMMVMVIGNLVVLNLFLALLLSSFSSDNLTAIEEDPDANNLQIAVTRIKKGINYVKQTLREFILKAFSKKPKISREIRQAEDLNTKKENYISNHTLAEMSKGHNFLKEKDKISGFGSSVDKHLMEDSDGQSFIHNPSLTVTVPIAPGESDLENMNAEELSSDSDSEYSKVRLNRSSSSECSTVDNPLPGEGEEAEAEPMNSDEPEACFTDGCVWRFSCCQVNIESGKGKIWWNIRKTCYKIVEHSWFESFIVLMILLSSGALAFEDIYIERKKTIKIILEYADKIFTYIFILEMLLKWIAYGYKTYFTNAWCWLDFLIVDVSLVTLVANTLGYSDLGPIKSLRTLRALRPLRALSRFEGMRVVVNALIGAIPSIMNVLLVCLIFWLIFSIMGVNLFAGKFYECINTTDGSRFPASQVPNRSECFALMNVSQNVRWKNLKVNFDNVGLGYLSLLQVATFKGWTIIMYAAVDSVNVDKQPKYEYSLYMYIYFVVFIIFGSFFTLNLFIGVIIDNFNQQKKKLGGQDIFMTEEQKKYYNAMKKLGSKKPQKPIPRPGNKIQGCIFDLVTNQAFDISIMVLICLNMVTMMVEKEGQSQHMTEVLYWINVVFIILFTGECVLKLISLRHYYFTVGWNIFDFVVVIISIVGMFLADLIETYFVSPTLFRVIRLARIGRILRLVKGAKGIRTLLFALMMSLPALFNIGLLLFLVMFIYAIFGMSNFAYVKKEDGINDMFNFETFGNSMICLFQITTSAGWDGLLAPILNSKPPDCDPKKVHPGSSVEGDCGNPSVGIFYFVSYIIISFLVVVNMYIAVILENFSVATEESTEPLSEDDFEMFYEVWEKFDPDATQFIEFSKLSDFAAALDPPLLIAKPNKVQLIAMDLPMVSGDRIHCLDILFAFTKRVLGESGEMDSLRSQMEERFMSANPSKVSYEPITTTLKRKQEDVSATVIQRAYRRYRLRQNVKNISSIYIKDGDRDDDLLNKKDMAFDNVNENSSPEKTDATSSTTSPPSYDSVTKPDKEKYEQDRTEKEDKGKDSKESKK

What is called IC50 is the concentration needed to halve the response being measured. Turning to `N#Cc1cc(S(=O)(=O)Nc2nccs2)ccc1Oc1cccc(-c2cccc(N)n2)c1` [Example 639, 4-[3-(6-aminopyridin-2-yl)phenoxy]-3-cyano-N-1,3-thiazol-2-ylbenzenesulfonamide], the IC50 is 6900 nM. For `CC(=O)N1CC(c2cc(Cl)ccc2Oc2ccc(S(=O)(=O)Nc3nccs3)cc2C#N)C1` [Example 640, 4-[2-(1-acetylazetidin-3-yl)-4-chlorophenoxy]-3-cyano-N-1,3-thiazol-2-ylbenzenesulfonamide] the value was 1000 nM; for `N#Cc1cc(S(=O)(=O)Nc2nccs2)ccc1Oc1ccc(F)cc1-c1cnn(CC(F)(F)F)c1` [Example 641, 3-cyano-4-{4-fluoro-2-[1-(2,2,2-trifluoroethyl)-1H-pyrazol-4-yl]phenoxy}-N-1,3-thiazol-2-ylbenzenesulfonamide], 1300 nM; for `N#Cc1cc(S(=O)(=O)Nc2nccs2)ccc1Oc1ccc(Cn2cccn2)cc1F` [Example 642, 3-cyano-4-[2-fluoro-4-(1H-pyrazol-1-ylmethyl)phenoxy]-N-1,3-azol-2-ylbenzenesulfonamide], 2600 nM.

Turning to `N#Cc1cc(S(=O)(=O)Nc2nccs2)ccc1Oc1ccc(-n2ccc(C(F)(F)F)n2)nc1` [Example 643, 3-cyano-N-1,3-thiazol-2-yl-4-({6-[3-(trifluoromethyl)-1H-pyrazol-1-yl]pyridin-3-yl}oxy)benzenesulfonamide], the IC50 was 2100 nM.

Take `N#Cc1cc(S(=O)(=O)Nc2nccs2)ccc1Oc1ccc(Oc2ccccc2)nc1` [Example 644, 3-cyano-4-[(6-phenoxypyridin-3-yl)oxy]-N-1,3-thiazol-2-ylbenzenesulfonamide]: the IC50 is 2600 nM. For `Cn1nccc1-c1ccc(Oc2ccc(S(=O)(=O)Nc3nccs3)cc2C#N)cn1` [Example 645, 3-cyano-4-{[6-(1-methyl-1H-pyrazol-5-yl)pyridin-3-yl]oxy}-N-1,3-thiazol-2-ylbenzenesulfonamide] the value was over 1000 nM; for `N#Cc1cc(S(=O)(=O)Nc2nccs2)ccc1Oc1ccc(-c2ccccc2)nc1` [Example 646, 3-cyano-4-[(6-phenylpyridin-3-yl)oxy]-N-1,3-thiazol-2-ylbenzenesulfonamide], 2800 nM. The figure for `Cn1nc(C(F)(F)F)cc1-c1ccc(Oc2ccc(S(=O)(=O)Nc3nccs3)cc2C#N)cn1` [Example 647, 3-cyano-4-({6-[1-methyl-3-(trifluoromethyl)-1H-pyrazol-5-yl]pyridin-3-yl}oxy)-N-1,3-thiazol-2-ylbenzenesulfonamide] is 2900 nM; for `Cn1nccc1-c1cc(Oc2ccc(S(=O)(=O)Nc3nccs3)cc2C#N)ccc1Cl` [Example 648, 4-[4-chloro-3-(1-methyl-1H-pyrazol-5-yl)phenoxy]-3-cyano-N-1,3-thiazol-2-ylbenzenesulfonamide] it is 1600 nM.

On to `Cc1cc(C(F)(F)F)nn1-c1cccc(Oc2ccc(S(=O)(=O)Nc3nccs3)cc2C#N)c1` [Example 650, 3-cyano-4-{3-[5-methyl-3-(trifluoromethyl)-1H-pyrazol-1-yl]phenoxy}-N-1,3-thiazol-2-ylbenzenesulfonamide], for which the 50% inhibitory concentration (IC50) is 1600 nM. With `Cn1ccnc1-c1cc(Cl)ccc1Oc1ccc(S(=O)(=O)Nc2nccs2)cc1C#N` [Example 651, 4-[4-chloro-2-(1-methyl-1H-imidazol-2-yl)phenoxy]-3-cyano-N-1,3-thiazol-2-ylbenzenesulfonamide], the IC50 is 1000 nM. As to `N#Cc1cc(S(=O)(=O)Nc2nccs2)ccc1Oc1ccc(Cl)cc1-c1cnccn1` [Example 652, 4-(4-chloro-2-pyrazin-2-ylphenoxy)-3-cyano-N-1,3-thiazol-2-ylbenzenesulfonamide], the IC50 is 900 nM. For `Cn1nc(C(F)(F)F)cc1-c1cc(F)cc(Oc2ccc(S(=O)(=O)Nc3nccs3)cc2C#N)c1` [Example 653, 3-cyano-4-{3-fluoro-5-[1-methyl-3-(trifluoromethyl)-1H-pyrazol-5-yl]phenoxy}-N-1,3-thiazol-2-ylbenzenesulfonamide] the value was 1100 nM. For `COCc1cc(C(F)F)nn1-c1cccc(Oc2ccc(S(=O)(=O)Nc3nccs3)cc2C#N)c1` [Example 654, 3-cyano-4-{3-[3-(difluoromethyl)-5-(methoxymethyl)-1H-pyrazol-1-yl]phenoxy}-N-1,3-thiazol-2-ylbenzenesulfonamide], the half-maximal inhibitory concentration (IC50) was 1100 nM. The figure for `O=S(=O)(Nc1cscn1)c1cc(Cl)c(Oc2ccc(Cl)cc2C2CCNCC2)cc1F` [Example 655, 5-chloro-4-(4-chloro-2-piperidin-4-ylphenoxy)-2-fluoro-N-1,3-thiazol-4-ylbenzenesulfonamide] is 49 nM; for `Cn1nccc1-c1nc(C(F)(F)F)ccc1Oc1cc(F)c(S(=O)(=O)Nc2cscn2)cc1Cl` [Example 656, 5-chloro-2-fluoro-4-{[2-(1-methyl-1H-pyrazol-5-yl)-6-(trifluoromethyl)pyridin-3-yl]oxy}-N-1,3-thiazol-4-ylbenzenesulfonamide] it is 270 nM.

With `Cn1nccc1-c1cc(F)ccc1Oc1cc(F)c(S(=O)(=O)Nc2cscn2)cc1Cl` [Example 657, 5-chloro-2-fluoro-4-[4-fluoro-2-(1-methyl-1H-pyrazol-5-yl)phenoxy]-N-1,3-thiazol-4-ylbenzenesulfonamide], the 50% inhibitory concentration (IC50) is 83 nM.

As for `O=S(=O)(Nc1cscn1)c1cc(Cl)c(Oc2ccc(F)cc2-c2ccn[nH]2)cc1F` [Example 658, 5-chloro-2-fluoro-4-[4-fluoro-2-(1H-pyrazol-5-yl)phenoxy]-N-1,3-thiazol-4-ylbenzenesulfonamide], the concentration for half-maximal inhibition (IC50) is 250 nM.

As to `O=S(=O)(Nc1cscn1)c1cc(Cl)c(Oc2ccc(C(F)(F)F)cc2-c2cn[nH]c2)cc1F` [Example 659, 5-chloro-2-fluoro-4-[2-(1H-pyrazol-4-yl)-4-(trifluoromethyl)phenoxy]-N-1,3-thiazol-4-ylbenzenesulfonamide], the IC50 is 91 nM. The figure for `O=S(=O)(Nc1cscn1)c1cc(Cl)c(Oc2ccc(Cl)cc2-c2cn[nH]c2)cc1F` [Example 661, 5-chloro-4-[4-chloro-2-(1H-pyrazol-4-yl)phenoxy]-2-fluoro-N-1,3-thiazol-4-ylbenzenesulfonamide] is 77 nM; for `Cc1n[nH]cc1-c1cc(Cl)ccc1Oc1cc(F)c(S(=O)(=O)Nc2cscn2)cc1Cl` [Example 662, 5-chloro-4-[4-chloro-2-(3-methyl-1H-pyrazol-4-yl)phenoxy]-2-fluoro-N-1,3-thiazol-4-ylbenzenesulfonamide] it is 33 nM; for `O=S(=O)(Nc1cscn1)c1cc(Cl)c(Oc2cc(C(F)(F)F)ccc2-c2cccc(CO)c2)cc1F` [Example 663, 5-chloro-2-fluoro-4-{[3′-(hydroxymethyl)-4-(trifluoromethyl)biphenyl-2-yl]oxy}-N-1,3-thiazol-4-ylbenzenesulfonamide] it is 130 nM.

For `N#Cc1cc(S(=O)(=O)Nc2ncns2)ccc1Oc1ccc(-c2nc(CO)co2)cc1` [Example 665, 3-Cyano-4-{4-[4-(hydroxymethyl)-1,3-oxazol-2-yl]phenoxy}-N-1,2,4-thiadiazol-5-ylbenzenesulfonamide], the IC50 is over 1000 nM.

Consider `O=S(=O)(Nc1ccc(F)cn1)c1cc(F)c(Oc2ccc(C(F)(F)F)cc2C2CCNCC2)cc1F` [Example 666, 2,5-Difluoro-N-(5-fluoropyridin-2-yl)-4-[2-piperidin-4-yl-4-(trifluoromethyl)phenoxy]benzenesulfonamide], for which the concentration for half-maximal inhibition (IC50) was 270 nM.
